Key:
CDK8/CycC = biological target: T1, CDK8/CycC (Homo sapiens, UniProt P49336); test: CDK8 inhibitory activity (TR-FRET, Kinase Tracer-236 displacement); type: binding; conditions: 1 μM of the test compound; read-out: Percent inhibition of CDK8 activity (%)
T1 construct: purchased Carna Biosciences
Outline: (§1)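 Binding assay measuring displacement of Kinase Tracer-236 (60 nM in the added mix) by compound, using Eu-cryptate anti-GST antibody with CDK8/CycC (84 ng/mL) or CDC2L6/CycC (87 ng/mL) solutions. After 1 h at room temperature, TR-FRET read at 615 and 665 nm (excitation 320 nm).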

[1] = test system: SW480 human colorectal cancer cells; test: Antitumor efficacy in mice bearing SW480 human colorectal cancer xenograft; type: in vivo, BALB/c female nude mice; conditions: Mus musculus, SW480, 336 h, oral, 1 dose per day, 14 days, percent tumor growth relative to control group, read-out: T/C (%)
Procedure: The compound of the present invention was evaluated for its antitumor efficacy in mice bearing cancer derived from SW480 human colorectal cancer cells by the following method.
SW480 human colorectal cancer cells were transplanted into 6- to 7-week-old BALB/c female nude mice (CLEA Japan) by subcutaneous injection of 2.0×10^6 cells per mouse. At 7 to 14 days after the transplantation, the size of the engrafted tumor was measured, and the tumor volume was calculated according to the following formula. Tumor volume=major axis×minor axis×minor axis×(½)
Test subjects having an engrafted tumor with a tumor volume of approximately 100 mm^3 were selected and used in the experiment (6 subjects per group). A suspension of each test compound in a 0.5% methylcellulose solution (Wako Pure Chemical Industries) was orally administered to the mice for 14 days at the dose (mg/kg body weight, indicating the amount per dose) and the number of doses shown in Table 4. On the day before the start of the administration and the day before the completion of the administration, the tumor size was measured, and the tumor volume was calculated.
Percent tumor growth (T/C (%)) of the test compound administration group relative to the control administration group was calculated according to the following formula. T/C(%)=(tumor volume of the test compound administration group after the completion of the administration−tumor volume of the test compound administration group at the day before the start of the administration)/(tumor volume of the control administration group after the completion of the administration−tumor volume of the control administration group at the day before the start of the administration))×100

[2] = test system: human multiple myeloma RPMI8226 cells; test: Inhibitory activity against human multiple myeloma RPMI8226 cell growth (CellTiter-Glo); type: cell-based; conditions: Homo sapiens, RPMI-8226, 192 h, 1 μM of the test compound, cultured for 8 days; read-out: Percent inhibition of RPMI8226 cell growth (%)
Outline: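 RPMI8226 cells (300/well) cultured 1 day at 37 °C, 5% CO2, then given compound at 1 μM for 8 days. ATP luminescence (CellTiter-Glo) read; percent inhibition relative to 0.1% DMSO wells.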

CDK19 (CDC2L6/CycC) = biological target: T2, CDK19 (CDC2L6/CycC) (Homo sapiens, UniProt Q9BWU1); test: CDK19 inhibitory activity (TR-FRET, Kinase Tracer-236 displacement); type: binding; conditions: 1 μM of the test compound; read-out: Percent inhibition of CDK19 activity (%)
T2 construct: purchased Carna Biosciences
T2 sequence (Q9BWU1 whole entry): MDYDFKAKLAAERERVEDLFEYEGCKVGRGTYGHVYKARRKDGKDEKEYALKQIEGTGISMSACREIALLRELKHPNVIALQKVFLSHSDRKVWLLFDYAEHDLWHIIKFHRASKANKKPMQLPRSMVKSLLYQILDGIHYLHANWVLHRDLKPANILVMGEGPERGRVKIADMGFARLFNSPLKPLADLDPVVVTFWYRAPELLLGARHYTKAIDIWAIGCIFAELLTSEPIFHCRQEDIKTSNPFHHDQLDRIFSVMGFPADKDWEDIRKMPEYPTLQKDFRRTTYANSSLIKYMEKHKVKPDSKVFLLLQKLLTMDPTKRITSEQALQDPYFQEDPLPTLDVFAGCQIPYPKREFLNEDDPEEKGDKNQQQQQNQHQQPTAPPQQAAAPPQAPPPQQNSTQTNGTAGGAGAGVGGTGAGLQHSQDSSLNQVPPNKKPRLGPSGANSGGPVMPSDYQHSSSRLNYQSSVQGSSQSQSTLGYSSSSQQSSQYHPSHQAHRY
T2 sequence (P24863 whole entry partner): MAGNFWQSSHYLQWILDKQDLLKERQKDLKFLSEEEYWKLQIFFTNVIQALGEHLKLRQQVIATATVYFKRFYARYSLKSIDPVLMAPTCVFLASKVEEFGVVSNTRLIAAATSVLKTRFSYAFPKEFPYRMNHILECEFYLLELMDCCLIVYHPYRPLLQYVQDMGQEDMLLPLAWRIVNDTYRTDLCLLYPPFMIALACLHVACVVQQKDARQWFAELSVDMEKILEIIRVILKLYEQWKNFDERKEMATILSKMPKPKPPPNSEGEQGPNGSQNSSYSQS
Outline: as §1

T1 sequence (P49336 whole entry): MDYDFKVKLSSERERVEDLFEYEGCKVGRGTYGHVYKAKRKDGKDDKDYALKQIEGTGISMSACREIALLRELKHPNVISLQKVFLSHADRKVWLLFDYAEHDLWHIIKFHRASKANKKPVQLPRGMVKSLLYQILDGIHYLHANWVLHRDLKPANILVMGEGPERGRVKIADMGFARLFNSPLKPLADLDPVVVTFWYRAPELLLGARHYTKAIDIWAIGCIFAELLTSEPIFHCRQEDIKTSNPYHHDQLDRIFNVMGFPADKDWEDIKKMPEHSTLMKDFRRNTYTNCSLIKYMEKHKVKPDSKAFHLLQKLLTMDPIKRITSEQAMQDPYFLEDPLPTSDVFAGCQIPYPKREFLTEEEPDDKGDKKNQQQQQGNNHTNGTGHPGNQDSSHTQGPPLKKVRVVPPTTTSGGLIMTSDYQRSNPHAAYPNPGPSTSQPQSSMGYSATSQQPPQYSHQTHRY
T1 sequence (P24863 whole entry partner): as the sequence (P24863 whole entry partner) above

| Structure (SMILES) | inhibition at 1 µM (CDK8/CycC) | inhibition at 1 µM (CDK19 (CDC2L6/CycC)) | response vs control in vivo at 30 mg/kg [1] | inhibition at 1 µM [2] | response vs control in vivo at 50 mg/kg [1] |
| --- | --- | --- | --- | --- | --- |
| O=C(/C=C/c1cnccc1-c1cnn(C2CC2)c1)Nc1ccc(CN2CCOCC2)cc1F [Example 194, (2E)-3-(4-(1-Cyclopropyl-1H-pyrazol-4-yl)pyridin-3-yl)-N-(2-fluoro-4-(morpholin-4-ylmethyl)phenyl)acrylamide] | 99% | 99% |  | 53% | 36% |
| Cn1cc(-c2ccncc2/C=C/C(=O)Nc2ccc3c(c2)CN(CC(F)(F)F)CC3)cn1 [Example 216, (2E)-3-(4-(1-Methyl-1H-pyrazol-4-yl)pyridin-3-yl)-N-(2-(2,2,2-trifluoroethyl)-1,2,3,4-tetrahydroisoquinolin-7-yl)acrylamide] | 102% | 100% |  | 59% | 43% |
| O=C(/C=C/c1cnccc1-c1cnn(C2CC2)c1)Nc1ccc(CN2CCOCC2)cc1 [Example 97, (2E)-3-(4-(1-Cyclopropyl-1H-pyrazol-4-yl)pyridin-3-yl)-N-(4-(morpholin-4-ylmethyl)phenyl)acrylamide] | 92% | 102% |  | 53% | 37% |
| O=C(/C=C/c1cncc(F)c1-c1cnn(C2CC2)c1)Nc1ccc(CN2CCOCC2)cc1F [Example 273, (2E)-3-(4-(1-Cyclopropyl-1H-pyrazol-4-yl)-5-fluoropyridin-3-yl)-N-(2-fluoro-4-(morpholin-4-ylmethyl)phenyl)acrylamide] | 101% | 96% |  | 64% | 36% |
| CCn1cc(-c2ccncc2CCC(=O)Nc2ccc(CN3CCOCC3)cc2)cn1 [Example 99, 3-(4-(1-Ethyl-1H-pyrazol-4-yl)pyridin-3-yl)-N-(4-(morpholin-4-ylmethyl)phenyl)propanamide] | 90% | 85% |  | 62% |  |
| O=C(/C=C/c1cnccc1-c1cccs1)Nc1ccc(CCc2nnco2)cc1 [Example 1, (2E)-N-(4-(2-(1,3,4-Oxadiazol-2-yl)ethyl)phenyl)-3-(4-(2-thienyl)pyridin-3-yl)acrylamide] | 101% | 100% |  | 59% |  |
| Cn1cc(-c2ccncc2/C=C/C(=O)Nc2ccc(CN3CCOCC3)c(Cl)c2)cn1 [Example 42, (2E)-N-(3-Chloro-4-(morpholin-4-ylmethyl)phenyl)-3-(4-(1-methyl-1H-pyrazol-4-yl)pyridin-3-yl)acrylamide] | 99% | 99% |  | 53% |  |
| Cn1cc(-c2ccncc2/C=C/C(=O)Nc2ccc(CN3CC4CC3CO4)cc2)cn1 (centres unmarked) [Example 51, (2E)-3-(4-(1-methyl-1H-pyrazol-4-yl)pyridin-3-yl)-N-(4-(2-oxa-5-azabicyclo[2.2.1]hept-5-ylmethyl)phenyl)acrylamide] | 100% | 96% |  | 58% |  |

Continued, in another order:

| inhibition at 1 µM (CDK8/CycC) | inhibition at 1 µM (CDK19 (CDC2L6/CycC)) | Structure (SMILES) | response vs control in vivo at 30 mg/kg [1] | inhibition at 1 µM [2] | response vs control in vivo at 50 mg/kg [1] |
| --- | --- | --- | --- | --- | --- |
| 103% | 102% | Cn1cc(-c2c(F)cncc2/C=C/C(=O)Nc2ccc(CN3CC(F)(F)C3)cc2)cn1 [Example 359, (2E)-N-(4-((3,3-Difluoroazetidin-1-yl)methyl)phenyl)-3-(5-fluoro-4-(1-methyl-1H-pyrazol-4-yl)pyridin-3-yl)acrylamide] | 36% | 65% |  |
| 104% | 100% | O=C(/C=C/c1cncc(F)c1-c1cnn(C2CC2)c1)Nc1ccc2c(c1)CN(CC(F)(F)F)C2 [Example 324, (2E)-3-(4-(1-Cyclopropyl-1H-pyrazol-4-yl)-5-fluoropyridin-3-yl)-N-(2-(2,2,2-trifluoroethyl)-2,3-dihydro-1H-isoindol-5-yl)acrylamide] | 29% | 58% |  |
| 105% | 101% | O=C(/C=C/c1cnccc1-c1cnn(C2CC2)c1)Nc1ccc(CN2CC(F)(F)C2)cc1 [Example 309, (2E)-3-(4-(1-Cyclopropyl-1H-pyrazol-4-yl)pyridin-3-yl)-N-(4-((3,3-difluoroazetidin-1-yl)methyl)phenyl)acrylamide] | 51% | 58% |  |
| 98% | 102% | Cn1cc(-c2ccncc2/C=C/C(=O)Nc2ccc3c(c2)CN(CC(F)(F)F)C3)cn1 [Example 289, (2E)-3-(4-(1-Methyl-1H-pyrazol-4-yl)pyridin-3-yl)-N-(2-(2,2,2-trifluoroethyl)-2,3-dihydro-1H-isoindol-5-yl)acrylamide] |  | 64% | 31% |

Reference: patent US9957251B2 (Takeda Pharmaceutical Company Limited, priority 2014, dated 2018)
